Source: ChEMBL document CHEMBL5154863, “Design and synthesis of quinolinium-based derivatives targeting FtsZ for antibacterial evaluation and mechanistic study” (Eur J Med Chem, 2022)
Active and inactive are the calls of the source. No cut-off for these calls is given here.

Assays:
[1] = target: T1, Cell division protein FtsZ (Staphylococcus aureus) (UniProt P0A031); assay: Induction of Staphylococcus aureus FtsZ polymerization expressed in Escherichia coli BL21 (DE3) assessed as increase in absorbance at 2 to 8 ug/ml in presence of GTP by microplate reader method; conditions: dose 2-8 µg/ml, DDE = dose-dependent effect
T1 sequence (whole entry): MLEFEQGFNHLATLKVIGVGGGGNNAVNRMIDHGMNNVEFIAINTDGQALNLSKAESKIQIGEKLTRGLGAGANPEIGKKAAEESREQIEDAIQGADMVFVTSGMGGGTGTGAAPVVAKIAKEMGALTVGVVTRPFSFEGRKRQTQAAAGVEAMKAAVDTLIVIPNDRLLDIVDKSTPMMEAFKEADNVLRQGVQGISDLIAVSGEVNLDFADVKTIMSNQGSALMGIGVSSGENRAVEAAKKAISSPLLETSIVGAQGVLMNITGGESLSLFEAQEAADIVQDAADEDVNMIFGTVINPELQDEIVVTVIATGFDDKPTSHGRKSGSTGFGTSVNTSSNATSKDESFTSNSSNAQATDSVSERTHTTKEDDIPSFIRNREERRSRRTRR

Enterococcus faecium = assay: Antibacterial activity against vancomycin resistant Enterococcus faecium ATCC 700221 assessed as inhibition of bacterial growth incubated for 20 to 24 hrs by broth micro dilution method; type: functional; conditions: time 20-24 hrs
Acinetobacter baumannii = assay: Antibacterial activity against multi-drug resistant Acinetobacter baumannii ATCC 19606 assessed as inhibition of bacterial growth incubated for 20 to 24 hrs by broth micro dilution method; type: functional; conditions: time 20-24 hrs
Klebsiella pneumoniae = assay: Antibacterial activity against NDM-1 expressing Klebsiella pneumoniae ATCC BAA 2470 assessed as inhibition of bacterial growth incubated for 20 to 24 hrs by broth micro dilution method; type: functional; conditions: time 20-24 hrs
Bacillus subtilis [2] = assay: Bactericidal activity against Bacillus subtilis CMCC (B) 63501 assessed as inhibition of bacterial growth incubated for 24 hrs by resazurin dye based microtiter plate assay; type: functional
Staphylococcus aureus [3] = assay: Antibacterial activity against Staphylococcus aureus ATCC 29213 assessed reduction in viable bacterial count upto 4 times MIC measured after 8 hrs by time-kill kinetics assay; type: functional
Bacillus subtilis [4] = assay: Induction of morphological changes in Bacillus subtilis CMCC (B) 63501 assessed as elongation of bacterial cell at 0.5 times MIC for 4 hrs (reference value: 3 to 5 um) by microscopic analysis; type: functional
Staphylococcus aureus [5] = assay: Induction of morphological changes in Staphylococcus aureus ATCC 29213 assessed as enlargement of cell size at 0.5 times MIC for 4 hrs by microscopic analysis; type: functional, organism-based
[6] = target: T1, Cell division protein FtsZ (Staphylococcus aureus); assay: Binding affinity to Staphylococcus aureus FtsZ assessed as decrease in beta turn structure at 8 ug/ml incubated for 30 mins by circular dichroism method (reference value: 17.4 %); design: scale not given: the % may be the effect or the level left; conditions: dose 8.0 µg/ml
[7] = target: T1, Cell division protein FtsZ (Staphylococcus aureus); assay: Binding affinity to Staphylococcus aureus FtsZ assessed as equilibrium binding constant by isothermal titration calorimetry
Erythrocyte = assay: Hemolytic activity in Kunming mouse erythrocyte at 1 to 64 ug/ml incubated for 1 hr; type: toxicity, cell-based; conditions: dose 1-64 µg/ml
Staphylococcus aureus [8] = assay: Induction of drug resistance against Staphylococcus aureus ATCC 29213 assessed as fold increase in MIC after 16 passage; type: functional

## CC1CCN(c2cc(/C=C/c3ccc(N(C)C)cc3)[n+](C)c3ccccc23)CC1.[I-]
[1]
  Activity: Dde
Enterococcus faecium
  MIC: 1 mg/L
Acinetobacter baumannii
  MIC: > 64 mg/L
Klebsiella pneumoniae
  MIC: > 64 mg/L
Bacillus subtilis [2]
  MBC: 4 mg/L
Staphylococcus aureus [3]
  Activity: 1000 CFU/ml
Bacillus subtilis [4]
  Activity: 70 um
Staphylococcus aureus [5]
  Activity: Active
[6]
  Activity: 15.5%
[7]
  Kb: 4.41 10^5/M
Erythrocyte
  IC5: 64 µg/mL
Staphylococcus aureus [8]
  fold change (FC): 8
